Measurements taken from ChEMBL document CHEMBL4665902, “Novel Heteroaryl Compounds for Treating Huntington's Disease” (ACS Med Chem Lett, 2020).

Molecular target: Huntingtin (Homo sapiens, UniProt P42858)
Experiment: Inhibition of Huntingtin protein (unknown origin) incubated for overnight in presence of MW1/MAB2166 monoclonal antibody by MSD assay

Chain of Huntingtin (P42858 whole entry): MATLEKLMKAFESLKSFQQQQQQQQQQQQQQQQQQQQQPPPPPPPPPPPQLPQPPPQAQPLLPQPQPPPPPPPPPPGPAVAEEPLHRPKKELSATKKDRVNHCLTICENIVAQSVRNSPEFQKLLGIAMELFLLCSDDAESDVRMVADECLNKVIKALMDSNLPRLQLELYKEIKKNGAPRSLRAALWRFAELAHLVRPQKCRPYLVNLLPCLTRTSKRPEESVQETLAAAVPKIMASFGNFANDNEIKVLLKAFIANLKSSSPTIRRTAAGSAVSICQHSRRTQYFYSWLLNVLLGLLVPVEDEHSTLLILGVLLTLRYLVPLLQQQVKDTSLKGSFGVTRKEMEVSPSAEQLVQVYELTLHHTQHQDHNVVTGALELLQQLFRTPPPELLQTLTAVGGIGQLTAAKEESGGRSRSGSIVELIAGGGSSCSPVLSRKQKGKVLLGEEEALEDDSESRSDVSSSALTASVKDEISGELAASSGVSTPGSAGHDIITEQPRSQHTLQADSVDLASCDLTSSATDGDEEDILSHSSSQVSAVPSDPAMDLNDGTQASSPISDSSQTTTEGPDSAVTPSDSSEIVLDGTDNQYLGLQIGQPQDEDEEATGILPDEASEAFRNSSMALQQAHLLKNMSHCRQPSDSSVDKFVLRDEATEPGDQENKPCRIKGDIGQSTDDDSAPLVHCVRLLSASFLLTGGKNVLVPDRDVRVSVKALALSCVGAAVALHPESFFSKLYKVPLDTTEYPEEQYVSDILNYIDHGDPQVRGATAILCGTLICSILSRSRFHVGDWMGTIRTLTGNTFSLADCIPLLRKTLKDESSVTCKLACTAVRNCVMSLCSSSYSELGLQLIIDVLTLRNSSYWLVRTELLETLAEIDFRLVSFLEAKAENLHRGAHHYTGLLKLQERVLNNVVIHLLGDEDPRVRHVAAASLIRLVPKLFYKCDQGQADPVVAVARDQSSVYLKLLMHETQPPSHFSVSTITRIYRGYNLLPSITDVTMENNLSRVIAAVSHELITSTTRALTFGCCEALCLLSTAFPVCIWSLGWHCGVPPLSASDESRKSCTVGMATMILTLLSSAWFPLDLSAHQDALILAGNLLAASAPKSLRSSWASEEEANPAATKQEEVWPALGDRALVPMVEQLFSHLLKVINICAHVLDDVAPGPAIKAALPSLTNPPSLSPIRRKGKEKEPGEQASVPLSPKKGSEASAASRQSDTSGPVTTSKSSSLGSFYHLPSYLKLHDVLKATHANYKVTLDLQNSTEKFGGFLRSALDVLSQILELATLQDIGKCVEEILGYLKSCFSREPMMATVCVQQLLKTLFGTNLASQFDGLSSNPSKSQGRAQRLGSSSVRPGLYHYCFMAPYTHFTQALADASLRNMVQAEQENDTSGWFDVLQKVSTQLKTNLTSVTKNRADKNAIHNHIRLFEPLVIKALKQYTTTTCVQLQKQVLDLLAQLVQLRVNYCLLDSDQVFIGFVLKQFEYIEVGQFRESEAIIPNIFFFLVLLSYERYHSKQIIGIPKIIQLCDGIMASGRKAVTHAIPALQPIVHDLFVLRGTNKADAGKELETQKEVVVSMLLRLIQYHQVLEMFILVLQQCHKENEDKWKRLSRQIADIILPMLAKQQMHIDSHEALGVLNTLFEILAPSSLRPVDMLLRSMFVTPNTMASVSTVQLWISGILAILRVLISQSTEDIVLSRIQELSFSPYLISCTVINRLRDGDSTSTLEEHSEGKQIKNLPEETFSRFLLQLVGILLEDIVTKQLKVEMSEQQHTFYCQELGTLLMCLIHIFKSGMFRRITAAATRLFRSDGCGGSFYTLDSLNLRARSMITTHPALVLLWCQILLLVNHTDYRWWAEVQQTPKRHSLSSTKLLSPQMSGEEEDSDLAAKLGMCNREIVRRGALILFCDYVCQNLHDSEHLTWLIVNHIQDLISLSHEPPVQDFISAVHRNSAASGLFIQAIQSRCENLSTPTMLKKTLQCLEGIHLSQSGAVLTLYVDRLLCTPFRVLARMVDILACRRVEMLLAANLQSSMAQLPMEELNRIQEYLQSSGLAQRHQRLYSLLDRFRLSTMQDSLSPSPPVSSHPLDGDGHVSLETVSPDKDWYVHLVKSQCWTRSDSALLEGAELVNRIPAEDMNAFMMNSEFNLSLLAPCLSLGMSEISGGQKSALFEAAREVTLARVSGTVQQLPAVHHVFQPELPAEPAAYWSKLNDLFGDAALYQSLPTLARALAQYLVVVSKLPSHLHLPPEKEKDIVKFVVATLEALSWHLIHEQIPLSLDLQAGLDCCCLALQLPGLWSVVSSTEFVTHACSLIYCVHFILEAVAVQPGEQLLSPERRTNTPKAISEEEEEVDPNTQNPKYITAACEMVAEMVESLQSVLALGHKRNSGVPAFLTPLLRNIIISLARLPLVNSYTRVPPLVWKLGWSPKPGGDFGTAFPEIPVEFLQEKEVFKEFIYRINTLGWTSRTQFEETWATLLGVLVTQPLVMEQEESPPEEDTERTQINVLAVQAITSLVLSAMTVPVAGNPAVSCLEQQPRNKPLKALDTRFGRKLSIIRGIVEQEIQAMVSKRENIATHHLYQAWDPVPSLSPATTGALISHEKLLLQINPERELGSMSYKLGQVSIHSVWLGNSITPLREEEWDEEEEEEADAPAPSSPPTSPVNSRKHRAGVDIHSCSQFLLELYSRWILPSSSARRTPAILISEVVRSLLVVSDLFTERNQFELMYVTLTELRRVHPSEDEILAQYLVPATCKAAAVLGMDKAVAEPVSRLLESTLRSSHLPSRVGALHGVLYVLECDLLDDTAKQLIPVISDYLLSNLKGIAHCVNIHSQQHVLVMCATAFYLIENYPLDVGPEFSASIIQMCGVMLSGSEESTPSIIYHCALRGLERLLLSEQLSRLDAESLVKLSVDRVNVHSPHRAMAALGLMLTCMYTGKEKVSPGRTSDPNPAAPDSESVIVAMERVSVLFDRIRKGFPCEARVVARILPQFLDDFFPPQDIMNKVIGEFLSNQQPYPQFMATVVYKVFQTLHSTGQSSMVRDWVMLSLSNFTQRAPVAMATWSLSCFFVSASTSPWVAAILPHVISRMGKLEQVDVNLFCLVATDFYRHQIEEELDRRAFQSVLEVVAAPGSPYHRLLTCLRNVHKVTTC

| SMILES | IC50 [nM] |
| --- | --- |
| C[C@H]1C[C@H](Oc2nc3sc(-c4ncc(-c5nnn(C)n5)c5cc[nH]c45)nc3s2)CCN1 | ≤ 100 |
| CN(c1nc2sc(-c3cnc(-c4cn[nH]c4)c4[nH]ccc34)nc2s1)C1CCNCC1 | ≤ 100 |
| Cn1cc2cc(-c3nn4cc(C5CCNCC5)nc4s3)cc(C#N)c2n1 | ≤ 100 |
| Cc1cn2nc(-c3cn4cc(C5CCNCC5)nc4s3)cc(C)c2n1 | ≤ 100 |
| CN(c1nc2sc(-c3ncc(-c4cn[nH]c4)nn3)nc2s1)C1CC(C)(C)NC(C)(C)C1 | ≤ 100 |
| CN(c1nc2sc(-c3ncc(-c4cn[nH]c4)cc3O)nc2s1)C1CC(C)(C)NC(C)(C)C1 | ≤ 100 |
